Reference: PMC10058894, “Bioactive C21 Steroidal Glycosides from Euphorbia kansui Promoted HepG2 Cell Apoptosis via the Degradation of ATP1A1 and Inhibited Macrophage Polarization under Co-Cultivation” (Molecules, 2023)

How the values were obtained:
HepG2 cells = experiment: MTT assay, cell viability of HepG2 cells; type: cell-based; details: Homo sapiens, HepG2, 48 h
Experimental: HepG2 cells (1 × 10^4 cells/well) or RAW264.7 cells ([…]) were incubated in 96T wells for 24 h. Then, HepG2 cells were treated with compounds or Adriamycin for 48 h. In addition, RAW264.7 cells were treated with compounds for 24 h. Then, 0.5% MTT (Sigma, Saint Louis, MO, USA) was added to 20 μL/well for 3.5 h. The supernatant was discarded, and DMSO (150 μL/well) was added to dissolve the purple formazan. Cells were agitated for 15 min at room temperature, and the absorbance at 490 nm was recorded by SpetraMax M2 (Molecular Devices, San Jose, CA, USA).

ROS in HepG2 cells = experiment: H2DCFDA staining of ROS; type: cell-based
Description: The occurrence of apoptosis is characterized by morphological events and the activation of apoptotic signaling pathways. Herein, we detected the apoptosis events of HepG2 cells by fluorescence staining and Western blotting. […] Apoptosis-related proteins, such as Bax, cleaved caspase 3, and cleaved caspase 8, were increased, and Bcl-2 was decreased (Figure 2B).
Figure 2 Compound 5 promoted the apoptosis of HepG2 cells. (A) Fluorescence image of cell apoptosis in HepG2 cells. The cells were double stained with Annexin V and PI. Early apoptotic cells were stained with Annexin V, and late apoptotic cells were stained with PI. (B) HepG2 cells were treated with Compound 5 (25 μmol∙L^−1) for 24 h, and the protein expression was detected by western blot. (C) Fluorescence image of ROS in HepG2 cells. (D) HepG2 cells were treated with Compound 5 (25 μmol∙L^−1) for 24 h, and autophagy-related protein expression and AKT/mTOR were detected by western blotting. Data are expressed as the mean ± standard deviation. * p < 0.05, ** p < 0.01, *** p < 0.001 vs. the control group.

[1] = system: Bax, cleaved caspase 3, cleaved caspase 8, Bcl-2, LC3-B, p62, AKT/mTOR in HepG2 cells; experiment: Western blot of apoptosis- and autophagy-related proteins in HepG2 cells; type: cell-based; details: HepG2, 25 μmol∙L−1, 24 h
Experimental: (§1) Protein samples were prepared using a RIPA lysis buffer. The concentration of the protein was analyzed using a nucleic acid and protein microanalyzer (Molecular Devices, San Jose, CA, USA). SDS–PAGE was performed to separate the proteins, which were then electrotransferred onto a PVDF membrane. The membrane was incubated with antibodies at 4 °C overnight. Next, the membrane was washed and incubated with an HRP-conjugated secondary antibody (Beyotime, BeiJing, China). Finally, signals were detected by the ECL method (Beyotime, BeiJing, China) and analyzed using ImageJ software.

Na+-K+-ATPase = biological target: T1, Na+-K+-ATPase (Homo sapiens, UniProt P05023); experiment: Na+-K+-ATPase enzyme activity detection kit; type: biochemical; details: HepG2 cells
T1 construct: endogenous in cells; host or cells: HepG2 (sonicated lysate supernatant)
Experimental: HepG2 cells were collected in centrifuge tubes, and every 5 million cells were added to 1 mL reagent to sonicate the cells (power 20%, ultrasound 3S, interval 10 s, repeat 30 times). Then, the samples were centrifuged at 8000 rpm/min for 10 min at 4 °C. The supernatant was then collected and placed on ice for testing. The operation was performed according to the instructions of the Na^+-K^+-ATPase enzyme activity detection kit (Solarbio, Beijing, China).

CETSA binding assay = details: 50 μmoL−1, western blot
Experimental: Figure 4 Compound 5 promoted the endocytosis and degradation of ATP1A1. (A) HepG2 cells were treated with 12.5 μmol∙L^−1 or 25 μmol∙L^−1 5 for 48 h, and the lysosomal co-localization assay was performed with a confocal laser. (B) Cells exposed to 25 μmol∙L^−1 5 for 12 h or 24 h were detected by fluorescence staining. (C) 5 is depicted in red, and the chains of Na^+, K^+-ATPase α/β/γ are represented by light blue, cyan-blue, and magenta, respectively. The crystallography, atomic coordinates, and structure factors have been deposited in the Protein Data Bank, www.pdb.org (accessed on 1 February 2023) (PDB ID code 3KDP). (D) The CETSA binding assay of ATP1A1 and β-actin in the presence or absence of 5 (50 μmoL^−1) at different temperatures was detected by western blot. The temperature-dependent melting curves and the apparent aggregation temperature were calculated by nonlinear regression. Values represent the mean ± SEM (N = 3 replicates).

[2] = system: HepG2 and RAW264.7 co-cultivation; experiment: Western blot in HepG2 and RAW264.7 co-cultivation; type: cell-based; details: 25 μmol∙L−1, 48 h
Experimental: L02, HepG2, and RAW264.7 cells were incubated in DMEM (Gibco, Carlsabad, CA, USA). Then, they were supplemented with 10% FBS (Gibco, Carlsbad, CA, USA) and 100 IU/mL streptomycin-penicillin (Solarbio, Beijing, China) in a CO2 chamber at 37 °C and 95% humidity. The morphology of the cells was observed using a reversed microscope (Olympus Corporation, Shinjuku, Japan) at × 200 magnifications. The Tissue Culture Plate Insert (LABSELECT, Beijing, China, Lot: 20421087A) chambers were used for HepG2 and RAW264.7-cell co-cultivation.
as §1
(§2) RAW264.7 cells (1.5 × 10^5 cells/well) and HepG2 cells (4 × 10^5 cells/well) were incubated in a Tissue Culture Plate Insert (LABSELECT, Hangzhou, China) at 37 °C and 95% humidity. Raw264.7 cells were incubated in 12-well plates, and HepG2 cells were incubated in Transwell chambers. After 24 h, the cells were treated with the compound for 48 h. Then, the chamber was discarded, and RAW264.7 cells were washed twice with PBS and a fresh medium. Next, 1.5 mL/well and 100 μL/well FluoSpheresTM carboxylate (Invitrogen, Carlsbad, CA, USA) were added to the medium for 2 h in the dark. Cells were washed twice with PBS, harvested, and then resuspended in 0.5 mL PBS. Finally, the cells were measured by a FACSCalibur (Becton Dickinson, Franklin Lakes, NJ, USA). Data were analyzed using FlowJo software.

RAW264.7 cells = experiment: Phagocytosis of macrophages by flow cytometry; type: cell-based; details: co-cultivation, vs control group
Experimental: as §2

## C[C@H](O)[C@]1(O)CC[C@@]2(O)[C@]1(C)[C@H](OC(=O)/C=C/c1ccccc1)C[C@@H]1[C@@]3(C)CC[C@H](O[C@H]4C[C@H](O)[C@H](O)[C@@H](C)O4)CC3=CC[C@]12O [Compound 5, Cynsaccatol L]
HepG2 cells
  IC50: 12.6 ± 2.13 µM
ROS in HepG2 cells
  ROS levels: significantly increased
[1]
  Bax, cleaved caspase 3 and cleaved caspase 8 protein expression: increased
  Bcl-2 protein expression: decreased
  expression of LC3-B and p62: upregulating
  phosphorylation of AKT and mTOR: inhibited
Na+-K+-ATPase
  activity of NAK (Na+-K+-ATPase): inhibited
CETSA binding assay
  denaturation temperature of β-actin (CETSA): did not change
[2]; vs C and C1 groups
  Bcl2 expression: down-regulating
  expression of cleaved-caspase 3, cleaved-caspase 8, LC3B, p62 and Bax: significantly upregulate
[2]; western blot
  expression of CD206 and ARG-1: downregulated
RAW264.7 cells
  phagocytic ability of macrophages: significantly upregulated
